For assay [1], the target named is adenosine A2B receptor (Homo sapiens (Human), UniProt P29275). The assay can be described thus: Adenosine receptor activity assay (Table 1), A2B activity. The conditions noted are these: for IC50: read-out: Ave A2B cAMP IC50. Type of assay: biochemical.
For assay [2], the target named is adenosine A2A receptor (Homo sapiens (Human), UniProt P29274). The assay can be described thus: Adenosine receptor activity assay (Table 1), A2A activity. Type of assay: biochemical. The conditions noted are these: read-out: Ave A2A cAMP IC50.
Sequence of adenosine A2A receptor (P29274 whole entry): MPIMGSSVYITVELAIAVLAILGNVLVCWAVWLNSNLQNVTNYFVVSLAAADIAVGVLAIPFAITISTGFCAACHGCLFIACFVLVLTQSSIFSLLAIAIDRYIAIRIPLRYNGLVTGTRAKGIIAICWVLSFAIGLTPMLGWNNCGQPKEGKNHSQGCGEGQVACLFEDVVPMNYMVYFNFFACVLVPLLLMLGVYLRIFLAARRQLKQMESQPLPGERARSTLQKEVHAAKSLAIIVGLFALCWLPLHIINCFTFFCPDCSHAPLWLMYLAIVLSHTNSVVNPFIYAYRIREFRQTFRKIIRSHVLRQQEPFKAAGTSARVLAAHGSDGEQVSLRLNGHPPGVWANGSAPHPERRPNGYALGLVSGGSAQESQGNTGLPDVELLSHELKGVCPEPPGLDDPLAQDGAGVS
Where [3] appears, read: A2A activity to A2B activity (A2A/A2B).
[4] abbreviates: A2A activity to the A2B activity, A2A/A2B.

Sequence of adenosine A2B receptor (P29275 whole entry): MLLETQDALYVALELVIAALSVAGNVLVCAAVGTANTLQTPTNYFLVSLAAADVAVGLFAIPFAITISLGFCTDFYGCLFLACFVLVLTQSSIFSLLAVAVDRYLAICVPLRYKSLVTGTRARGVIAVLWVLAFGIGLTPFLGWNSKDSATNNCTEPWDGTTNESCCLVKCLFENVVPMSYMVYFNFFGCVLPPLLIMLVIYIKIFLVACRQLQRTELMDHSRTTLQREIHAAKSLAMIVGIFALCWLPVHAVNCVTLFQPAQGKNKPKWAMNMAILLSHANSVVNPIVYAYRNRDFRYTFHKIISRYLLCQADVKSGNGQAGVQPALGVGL

In general, IC50 refers to the concentration that gives 50% inhibition. On to `CCC(NC(=O)c1nc(NC(CC)c2cccnc2)nc2ccsc12)c1cccnc1` (centres unmarked) [Example Z23, N-(1-(Pyridin-3-yl)propyl)-2-((1-(pyridin-3-yl)propyl)amino)thieno[3,2-d]pyrimidine-4-carboxamide], for which the Ratio in assay [1] (setting [3]) is on record as 5.63. Besides, the IC50 in assay [1] and in assay [2] was over 500 nM each time.
Regarding `Cc1cc2nc(N[C@@H](C)c3cncc(F)c3)nc(C(=O)NCC3CCNCC3)c2s1` [Example Z534, (S)-2-((1-(5-Fluoropyridin-3-yl)ethyl)amino)-6-methyl-N-(piperidin-4-ylmethyl)thieno[3,2-d]pyrimidine-4-carboxamide], in assay [1] (setting [4]), the Ratio is on record as 57.93. Also, the figures for the IC50 in assay [1] and in assay [2] were 50 to 100 nM and over 500 nM, respectively.
Taken in the same sequence, the figures for `C[C@H](Nc1nc(C(=O)N2CCN(C(=O)N(C)C)C2)c2sccc2n1)c1cncc(F)c1` [Example Z590, (S)-3-(2-((1-(5-Fluoropyridin-3-yl)ethyl)amino)thieno[3,2-d]pyrimidine-4-carbonyl)-N,N-dimethylimidazolidine-1-carboxamide] were 11.22, 10 to 50 nM and 100 to 500 nM.
In the case of `C[C@H](Nc1nc(C(=O)N2CC3(COC3)C2)c2sccc2n1)c1cccnc1` [Example Z14, (S)-(2-((1-(Pyridin-3-yl)ethyl)amino)thieno[3,2-d]pyrimidin-4-yl)(2-oxa-6-azaspiro[3.3]heptan-6-yl)methanone], the Ratio in assay [1] (setting [3]) is listed as 1.35. The IC50 in assay [1] and in assay [2] was 100 to 500 nM in each case.
Turning to `COC[C@@H]1CCN1C(=O)c1nc(N[C@@H](C)c2cncc(F)c2)nc2ccsc12` [Example Z567, (2-(((S)-1-(5-Fluoropyridin-3-yl)ethyl)amino)thieno[3,2-d]pyrimidin-4-yl)((S)-2-(methoxymethyl)azetidin-1-yl)methanone], the Ratio in assay [1] (setting [4]) was 8.82. The IC50 in assay [1] was 100 to 500 nM; in assay [2] it was over 500 nM.
As for `COCC(Nc1nc(C(=O)NC2COC2)c2sccc2n1)c1cccnc1` (centres unmarked) [Example Z216, 2-((2-Methoxy-1-(pyridin-3-yl)ethyl)amino)-N-(oxetan-3-yl)thieno[3,2-d]pyrimidine-4-carboxamide], the Ratio in assay [1] (setting [3]) is 5.35. Moreover, the IC50 in assay [1] lay in the range of 10 to 50 nM; in assay [2] it was 100 to 500 nM.
Taken in the same sequence, the figures for `CS(=O)(=O)[C@@H]1CCN(C(=O)c2nc(NCc3cncc(F)c3)nc3ccsc23)C1` [Example Z261, (R)-(2-(((5-Fluoropyridin-3-yl)methyl)amino)thieno[3,2-d]pyrimidin-4-yl)(3-(methylsulfonyl)pyrrolidin-1-yl)methanone] were 10.23, 100 to 500 nM and over 500 nM.
Take `CCC(Nc1nc(C(=O)N2CCCC2)c2sccc2n1)c1cccnc1` (centres unmarked) [Example Z25, (2-((1-(Pyridin-3-yl)propyl)amino)thieno[3,2-d]pyrimidin-4-yl)(pyrrolidin-1-yl)methanone]: the IC50 in assay [1] lay within 10 to 50 nM; in assay [2], 100 to 500 nM.
With `CC(=O)N[C@@H]1CCN(C(=O)c2nc(N[C@@H](C)c3cncc(F)c3)nc3ccsc23)C1` [Example Z319, N—((R)-1-(2-(((S)-1-(5-Fluoropyridin-3-yl)ethyl)amino)thieno[3,2-d]pyrimidine-4-carbonyl)pyrrolidin-3-yl)acetamide], in assay [1] (setting [3]), the Ratio came to 22.72. Moreover, the figures for the IC50 in assay [1] and in assay [2] were 50 to 100 nM and over 500 nM, respectively.
Taken in the same sequence, the figures for `CNc1cc2nc(N[C@@H](C)c3ccccn3)nc(C(=O)N3CC[C@@H](C)C3)c2s1` [Example Z207, (6-(Methylamino)-2-(((S)-1-(pyridin-2-yl)ethyl)amino)thieno[3,2-d]pyrimidin-4-yl)((R)-3-methylpyrrolidin-1-yl)methanone] were 14.35, 10 to 50 nM and 100 to 500 nM.
Taken in the same sequence, the figures for `C[C@H](Nc1nc(C(=O)N2CCCOC2)c2sccc2n1)c1ccccn1` [Example Z289, (S)-(1,3-Oxazinan-3-yl)(2-((1-(pyridin-2-yl)ethyl)amino)thieno[3,2-d]pyrimidin-4-yl)methanone] were 14.69, 100 to 500 nM and over 500 nM.
Taken in the same sequence, the figures for `C[C@H](Nc1nc(C(=O)NC2CN(C(=O)OC(C)(C)C)C2)c2sccc2n1)c1ccccn1` [Example Z179, tert-Butyl (S)-3-(2-((1-(pyridin-2-yl)ethyl)amino)thieno[3,2-d]pyrimidine-4-carboxamido)azetidine-1-carboxylate] were 1.09, 50 to 100 nM and 50 to 100 nM.
As to `C[C@H](Nc1nc(C(=O)NCC(C)(C)O)c2sccc2n1)c1ccccn1` [Example Z230, (S)—N-(2-Hydroxy-2-methylpropyl)-2-((1-(pyridin-2-yl)ethyl)amino)thieno[3,2-d]pyrimidine-4-carboxamide], the Ratio in assay [1] (setting [3]) is 7.45. The IC50 was 100 to 500 nM in assay [1] and over 500 nM in assay [2].
Taken in the same sequence, the figures for `C[C@H](Nc1nc(C(=O)N2CC(O)C2)c2sc(N)cc2n1)c1cccnc1` [Example Z248, (S)-(6-Amino-2-((1-(pyridin-3-yl)ethyl)amino)thieno[3,2-d]pyrimidin-4-yl)(3-hydroxyazetidin-1-yl)methanone] were 15.23, 50 to 100 nM and over 500 nM.
Taken in the same sequence, the figures for `C[C@H](Nc1nc(C(=O)NC[C@H]2CCCN2C(=O)OC(C)(C)C)c2sccc2n1)c1ccccn1` [Example Z228, tert-Butyl (R)-2-((2-(((S)-1-(pyridin-2-yl)ethyl)amino)thieno[3,2-d]pyrimidine-4-carboxamido)methyl)pyrrolidine-1-carboxylate] were 2.80, over 500 nM and over 500 nM.
Taken in the same sequence, the figures for `C[C@H](Nc1nc(C(=O)NCCN2CCCC2)c2sccc2n1)c1ccccn1` [Example Z356, (S)-2-((1-(Pyridin-2-yl)ethyl)amino)-N-(2-(pyrrolidin-1-yl)ethyl)thieno[3,2-d]pyrimidine-4-carboxamide] were 3.31, over 500 nM and over 500 nM.
In the case of `CC(C)NC(=O)N1CCN(C(=O)c2nc(N[C@@H](C)c3cncc(F)c3)nc3ccsc23)C1` [Example Z587, (S)-3-(2-((1-(5-Fluoropyridin-3-yl)ethyl)amino)thieno[3,2-d]pyrimidine-4-carbonyl)-N-isopropylimidazolidine-1-carboxamide], the Ratio in assay [1] (setting [4]) came to 1.63. Moreover, the IC50 is 50 to 100 nM in assay [1] and 100 to 500 nM in assay [2].
Consider `CC(=O)N[C@@H]1CCN(C(=O)c2nc(N[C@@H](C)c3cccnc3)nc3ccsc23)C1` [Example Z316, N—((R)-1-(2-(((S)-1-(Pyridin-3-yl)ethyl)amino)thieno[3,2-d]pyrimidine-4-carbonyl)pyrrolidin-3-yl)acetamide], for which, in assay [1] (setting [3]), the Ratio is reported as 2.06. The IC50 in assay [1] and in assay [2] was over 500 nM each time.
Regarding `C[C@H](Nc1nc(C(=O)N2CCN(C(=O)C(C)(C)C)C2)c2sccc2n1)c1cncc(F)c1` [Example Z565, (S)-1-(3-(2-((1-(5-Fluoropyridin-3-yl)ethyl)amino)thieno[3,2-d]pyrimidine-4-carbonyl)imidazolidin-1-yl)-2,2-dimethylpropan-1-one], the Ratio in assay [1] (setting [4]) was 6.39. In addition, the half-maximal inhibitory concentration (IC50) in assay [1] and in assay [2] was over 500 nM throughout.
On to `C[C@H](Nc1nc(C(=O)NCc2cncnc2)c2sccc2n1)c1cccnc1` [Example Z6, (S)-2-((1-(Pyridin-3-yl)ethyl)amino)-N-(pyrimidin-5-ylmethyl)thieno[3,2-d]pyrimidine-4-carboxamide], for which the Ratio in assay [1] (setting [3]) worked out at 0.49. The IC50 in assay [1] and in assay [2] was over 500 nM throughout.
`C[C@H](NC(=O)c1nc(N[C@@H](C)c2cccnc2)nc2ccsc12)c1cccnc1` [Example Z1, N—((S)-1-(Pyridin-3-yl)ethyl)-2-(((S)-1-(pyridin-3-yl)ethyl)amino)thieno[3,2-d]pyrimidine-4-carboxamide]: the Ratio in assay [1] (setting [3]) is listed as 0.55. In addition, the values for the IC50 in assay [1] and in assay [2] were 100 to 500 nM and 50 to 100 nM, respectively.
Taken in the same sequence, the figures for `C[C@H](Nc1nc(C(=O)N2CC[C@H](NC(=O)OC(C)(C)C)C2)c2sccc2n1)c1cccnc1` [Example Z314, tert-Butyl ((S)-1-(2-(((S)-1-(pyridin-3-yl)ethyl)amino)thieno[3,2-d]pyrimidine-4-carbonyl)pyrrolidin-3-yl)carbamate] were 0.46, 100 to 500 nM and 50 to 100 nM.
Taken in the same sequence, the figures for `O=C(c1nc(NCc2cccc(O)n2)nc2ccsc12)N1CCCC1` [Example Z70, (2-(((6-Hydroxypyridin-2-yl)methyl)amino)thieno[3,2-d]pyrimidin-4-yl)(pyrrolidin-1-yl)methanone] were 10.89, 50 to 100 nM and over 500 nM.
Taken in the same sequence, the figures for `COc1ccc(CNC(=O)c2nc(N[C@@H](C)c3cccnc3)nc3ccsc23)cc1OC` [Example Z33, (S)—N-(3,4-Dimethoxybenzyl)-2-((1-(pyridin-3-yl)ethyl)amino)thieno[3,2-d]pyrimidine-4-carboxamide] were 4.57, over 500 nM and over 500 nM.
On to `C[C@H](Nc1nc(C(=O)N2CCC[C@@H]2CO)c2sccc2n1)c1cccnc1` [Example Z46, ((R)-2-(Hydroxymethyl)pyrrolidin-1-yl)(2-(((S)-1-(pyridin-3-yl)ethyl)amino)thieno[3,2-d]pyrimidin-4-yl)methanone], for which, in assay [1] (setting [3]), the Ratio is 30.80. Further, the results for the IC50 in assay [1] and in assay [2] were 100 to 500 nM and over 500 nM, respectively.
For the compound `C[C@H](NC(=O)c1nc(N[C@@H](C)c2ccccc2)nc2ccsc12)c1ccccc1` [Example Z394, N—((S)-1-Phenylethyl)-2-(((S)-1-phenylethyl)amino)thieno[3,2-d]pyrimidine-4-carboxamide], the Ratio in assay [1] (setting [3]) was found to be 0.87. The IC50 in assay [1] and in assay [2] was 100 to 500 nM throughout.

Values taken from patent US11254686B1 (Corvus Pharmaceuticals, Inc., priority 2017, dated 2022).
